Laboratory results as given in patent publication US6900202B2, “Di-substituted imineheterocyclic compounds” (priority 2000, dated 2005).

These molecules were tested against T1, human α4β2 subtype of nicotinic acetylcholine receptors (Homo sapiens, UniProt P17787+P43681). Settings: response at 100 μM test compound, in comparison with response at 10 μM acetylcholine (100%); oocytes held at −50 mV.
T1 construct: expressed in transfected cells; host or cells: Xenopus laevis oocytes injected with hnACh-R α4 and β2 cRNA (pSP64 polyA vector)
Type: cell-based
Method: The agonist effect in human α4β2 subtype of nicotinic acetylcholine receptors are examined by using human nicotinic acetylcholine receptors prepared in oocytes of Xenopus laevis, which is injected with cRNA from the corresponding cloning cDNA of human α4 and β2 subunits of nicotinic acetylcholine receptors, and to measure the expression of the electric response by adding the test compounds to perfusion solution by means of membrane potential holding method.
Agonist Activities at Human α4β2 Subtype of Nicotinic Acetylcholine Receptors
The agonist activities of the compounds of the present invention at human α4β2 subtype of nicotinic acetylcholine receptors was evaluated by the following method, which was modified method described by Papke R. L., Thinschmidt J. S., Moulton B. A., Meyer E. M. & Poirier A., Br. J. Pharmacol., 120, 429-438 (1997).
(1) Preparation of cRNA of Human α4β2 Subtype of Nicotinic Acetylcholine Receptors
The cloning of human nicotinic acetylcholine receptor (hnACh-R) α4 cDNA and hnAC-R β2 cDNA were performed, in accordance with the conventional manners, by synthesizing the each DNA primers corresponding to the sequences of hnACh-R α4 cDNA and hnACh-R β2 cDNA [Monteggia L. M. et al., Gene, 155, 189-193 (1995); and Anand R., & Lindstrom J., Nucl. Acids Res., 18, 4272 (1990)], and obtained hnACh-R α4 cDNA and hnACh-R β2 cDNA by polymerase chain reaction (PCR), respectively. The obtained hnACh-R α4 cDNA and hnACh-R β2 cDNA were inserted to the cRNA expression vector (pSP64 polyA) having SP6 RNA promoter to construct hnACh-R α4/pSP64 polyA and hnACh-R β2/pSP64 polyA, respectively. After cutting from expression vector by restriction enzyme (EcoRI), transcription was performed by affecting SP6 RNA polymerase in the presence of cap analogues to obtain hnACh-R α4 cRNA and hnACh-R β2 cRNA, respectively.
(2) Expression of Human α4β2 Subtype Nicotinic Acetylcholine Receptors in Xenopus Oocytes
Oocytes were purchased from Kitanihonseibustukyohzai Co., Ltd., which were already enucleated from Xenopus laevis, and used in this experiment.
The oocytes were treated with collagenase (Sigma type I; 1 mg/ml) in calcium-free modified Birth's solution (88 mM of NaCl, 1 mM of KCl, 2.4 mM of NaHCO3, 0.82 mM of MgSO4, 15 mM of HEPES, pH 7.6) under gently stirring at the room temperature for 90 minutes, and washed out the enzyme from the tissue. Then, oocytes were separated from ovarian follicle by tweezers, and isolated oocytes were placed in antibiotics containing modified Birth's solution (88 mM of NaCl, 1 mM of KCl, 2.4 mM of NaHCO3, 0.82 mM of MgSO4, 15 mM of HEPES, pH 7.6, and 0.1 v/v % of mixture solution containing of penicillin and streptomycin for incubation; Sigma Co.). Thus treated oocytes were injected with 50 nl of adjusted cRNAs (1.0 mg/ml), that is, each 50 ng of hnACh-R α4 cRNA and hnACh-R β2 cRNA per 1 oocyte by using automatic injector (NANOJECT; DRUMMOND […] CO.), and further incubated for 4-14 days at 19° C. In oocytes, heterogeneous quintuple [(α4)2(β2)3] was composed by translation of injected cRNAs, and ion channel receptors were constructed on cell membrane.
(3) Agonist Activities at Human α4β2 Subtype of Nicotinic Acetylcholine Receptors
The recordings of responses at human α4β2 subtype of nicotinic acetylcholine receptors by means of membrane potential holding method were performed as follow. […] Test compounds were added to the perfusion solution, and recorded the peak strength of induced inward electric current. […]

T1 sequence (P43681 29-627 limits assumed): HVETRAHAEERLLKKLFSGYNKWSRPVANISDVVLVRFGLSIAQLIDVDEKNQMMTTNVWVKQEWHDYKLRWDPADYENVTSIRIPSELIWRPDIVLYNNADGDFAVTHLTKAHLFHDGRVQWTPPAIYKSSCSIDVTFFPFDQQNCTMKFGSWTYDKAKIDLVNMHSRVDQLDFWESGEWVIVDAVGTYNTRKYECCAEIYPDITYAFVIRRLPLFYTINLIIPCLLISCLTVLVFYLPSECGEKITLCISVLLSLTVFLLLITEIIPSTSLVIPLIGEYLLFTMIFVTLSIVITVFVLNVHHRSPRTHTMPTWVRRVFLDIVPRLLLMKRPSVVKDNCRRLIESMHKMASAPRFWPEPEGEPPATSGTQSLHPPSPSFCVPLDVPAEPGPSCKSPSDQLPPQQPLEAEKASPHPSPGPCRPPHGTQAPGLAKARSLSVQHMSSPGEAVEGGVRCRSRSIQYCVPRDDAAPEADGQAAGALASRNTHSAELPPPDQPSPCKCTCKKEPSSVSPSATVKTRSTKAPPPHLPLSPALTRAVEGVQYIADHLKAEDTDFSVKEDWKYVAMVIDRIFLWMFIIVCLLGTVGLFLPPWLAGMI
T1 sequence (P17787 26-502): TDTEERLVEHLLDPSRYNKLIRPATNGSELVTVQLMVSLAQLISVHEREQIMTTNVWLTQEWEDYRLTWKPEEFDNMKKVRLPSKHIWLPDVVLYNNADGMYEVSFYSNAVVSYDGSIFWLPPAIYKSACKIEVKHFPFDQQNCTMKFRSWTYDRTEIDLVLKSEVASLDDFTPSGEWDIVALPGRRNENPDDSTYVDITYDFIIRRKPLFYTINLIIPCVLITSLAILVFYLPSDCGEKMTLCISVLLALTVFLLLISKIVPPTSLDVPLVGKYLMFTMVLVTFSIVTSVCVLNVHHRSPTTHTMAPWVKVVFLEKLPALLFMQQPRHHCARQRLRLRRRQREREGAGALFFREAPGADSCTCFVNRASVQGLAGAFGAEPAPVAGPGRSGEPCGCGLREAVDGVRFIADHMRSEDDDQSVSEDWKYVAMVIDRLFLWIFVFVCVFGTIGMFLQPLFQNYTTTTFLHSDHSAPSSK

Row | SMILES | Agonist effect [%]
1 | Clc1ccc(C/N=C2\SCCN2Cc2ccc(Cl)nc2)cn1 [Compound 1, 3-(6-chloro-3-pyridyl)methyl-2-[(6-chloro-3-pyridyl)methyl]iminothiazolidine] | 6
2 | Clc1ccc(C/N=C2\OCCCN2Cc2ccc(Cl)nc2)cn1 [Compound 2, 3-(6-chloro-3-pyridyl)methyl-2-[(6-chloro-3-pyridyl)-methyl]imino-3,4,5,6-tetrahydro-2H-1,3-oxazine] | 27
3 | Clc1ccc(C/N=c2\sccn2Cc2ccc(Cl)nc2)cn1 [Compound 8, 3-(6-chloro-3-pyridyl)methyl-2-[(6-chloro-3-pyridyl)methyl]imino-2,3-dihydrothiazole] | 11
4 | Cn1ccn(Cc2ccc(Cl)nc2)c1=N [Compound 13, 1-(6-chloro-3-pyridyl)methyl-2-imino-3-methyl-2,3-dihydroimidazole] | 5
